These results are taken from US20040014772A1, “Compositions and methods for treating glomerular disorders” (priority 2000, published 2004).

Series [1] deals with glomerular epithelial cells GEC. Description: PAN-induced cytotoxicity to GEC (trypan blue exclusion, LDH release). The class given is cell-based, rat. The note with it: PAN 1.5 mM 48 h; preincubation CM 2 mM, PB 25 μM, RN 1 mM, PIP 0.2 mM, pyruvate 10 mM. Here is the method: Rat GEC (kindly provided by both Dr. Saulo Klahr, Washington University School of Medicine, St. Louis, Mo., and Dr. […], University of Texas Health Science Center, San Antonio, Tex.) were maintained in RPMI-1640 medium supplemented with 10% FBS, 15 mM HEPES, insulin, penicillin, streptomycin and L-glutamine in a humidified atmosphere of 95% air-5% CO2 at 37° C. and fed at intervals of 3 days ([…] et al, 1995, Biochem. Biophys. 318(2):286-294). The cells were maintained in 75 Cm^2 tissue culture flasks and the monolayers were subcultured using 0.05% trypsin-0.53 mM EDTA in Hank's balanced salt solution (HBSS). For the experimental study, the cells were grown in 12-well tissue culture plate until confluence. On the day of experiment, the medium was discarded and the confluent GEC monolayer was washed twice with HBSS. The cells were then incubated with various concentrations of PAN (0, 0.1, 0.5, 1.0, 1.5, and 2.0 mM in HBSS) for different periods of time (0, 6 hours, 1 day, 2 days, 3 days and 4 days) at 37° C. At the end of the incubation, the incubation medium was discarded and the GEC monolayer was harvested by trypsinization with 0.05% trypsin-0.53 mM EDTA for 5 min at 37° C. Isolated cells were suspended in HBSS to give about 10^6 cells/ml. PAN-induced cytotoxicity to GEC was measured by the trypan blue exclusion assay (Baliga et al, 1996, Kidney Intl. 50:1118-1124) and lactate dehydrogenase (LDH) release assay (Baliga et al., 1998, Kidney Intl. 53:394-401.). The latter is the percentage of LDH released into the medium, to total LDH recovered from both medium and cellular fraction. […] After the incubation, the cell monolayers were washed twice with HBSS and then incubated with cytotoxic dose of PAN in HBSS for a period of time necessary to induce consistent cytotoxicity ([…], 48 h, based on the concentration and time course studies) at 37° C. PAN induced cytotoxicity on GEC was measured by trypan blue exclusion assay.

A further series deals with H2O2 in the glomeruli. Description: Ultrastructural localization of H2O2 (cerium histochemistry) in rat kidney. The format is in vivo. The note with it: rats. The method, then:
The principle of this method is that cerium ions combine with H2O2 generated by the cell that results in a precipitate with properties suitable for ultrastructural histochemistry. Localization of H2O2 generation was performed following the procedure of Neale et al (PNAS, USA, 1993, 90:3645-3649.). Following PAN treatment, the left kidney was perfused at 37° C. by retrograde aortic perfusion with 4 ml of each of the following solutions: a) PBS; b) 20 mmol Tris-maleate buffer (pH 7.2) containing 7% sucrose (TMS); c) TMS containing 1 mmol aminotriazole; d) TMS containing 10 mmol aminotriazole, 1 mmol cerium chloride heptahydrate and 2.56 mmol B-NADPH; and e) TMS followed by 10 mmol of 2.5% glutaraldehyde as the fixative. Pieces of the kidney were fixed further for 2 hours in glutaraldehyde and embedded in Epon. Sections from the tissue block were routinely stained with 4% aqueous uranyl acetate and alkaline lead, and examined under a Leo 906 electron microscope.

A short description of series [2]: Renal function (serum creatinine, BUN) in PAN-treated rats. The class given is in vivo, rat. Particulars: PAN-treated rats with or without PIP or CM. Here is the method:
BUN and creatinine were measured by using assay kits from Sigma.

“Also recorded” adds a separate entry of the source.

`CN(C)c1ncnc2c1ncn2[C@@H]1O[C@H](CO)[C@@H](N)[C@H]1O` [PAN, puromycin aminonucleoside]: in series [1], the “PAN-induced cytotoxicity to GEC” value was “cytotoxic; also recorded: cell death in a time and dose dependent manner”. Besides, the “cerium-H2O2 reaction product in the glomerular basement membrane” value in the series with H2O2 in the glomeruli (1 hour and 6 hours after PAN injection) is “diffusely distributed throughout the glomerular basement membrane”. Further, the “foot processes (electron microscopy)” value with H2O2 in the glomeruli (fourth day after PAN, onset of proteinuria) is “marked fusion of the foot processes”. In addition, in series [2] (control 0.72±0.2), the serum creatinine came out at 0.85 ± 0.2 mg/dL. This compound came in with a BUN in series [2] (control 21±3, P<0.05 vs control) of 33 ± 4 mg/dL.
